# From ChEMBL document CHEMBL3046248, “Synthesis and Fungicidal Activities of 2-Alkoxyiminoacetamides with a 4, 5-Dihydroisoxazole Ring” (1998)
# Tested on: Pseudoperonospora cubensis
# Experiment: Fungicidal activity against Pseudoperonospora cubensis in cucumber plant assessed as cucumber downy mildew disease control at 7.8 ppm at 22 +/- 2 degC, 98% RH measured after 10 days
# Type: functional
row,Structure (SMILES),Activity
1,CO/N=C(\C#N)C(=O)NC1=NOC(C)(C)C1,70%
2,CO/N=C(\C#N)C(=O)NCC1=NOC(C)C1 (stereo not given),70%
3,CO/N=C(\C#N)C(=O)NCC1=NOC(C)(C)C1,70%

# Tested on: Pseudoperonospora cubensis
# Experiment: Fungicidal activity against Pseudoperonospora cubensis in cucumber plant assessed as cucumber downy mildew disease control at 125 ppm at 22 +/- 2 degC, 98% RH measured after 10 days
# Type: functional
row,Structure (SMILES),Activity
1,CC(C)O/N=C(\C#N)C(=O)NC1=NOC(C)C1 (stereo not given),70%
2,CO/N=C(\C#N)C(=O)NCC#N,70%
3,CO/N=C(\C(=N)SC)C(=O)NC1=NOC(C)(C)C1,70%
4,CO/N=C(\C#N)C(=O)NCC1=NOC(c2ccccc2)C1 (stereo not given),70%
5,CC(C)O/N=C(\C#N)C(=O)NCC1=NOC(C)C1 (stereo not given),70%
6,CCO/N=C(\C#N)C(=O)NC1=NOC(C)C1 (stereo not given),70%
7,CO/N=C(\C#N)C(=O)NC1=NOC(C(C)(C)C)C1 (stereo not given),70%

# Tested on: Pseudoperonospora cubensis
# Experiment: Fungicidal activity against Pseudoperonospora cubensis in cucumber plant assessed as cucumber downy mildew disease control at 31.3 ppm at 22 +/- 2 degC, 98% RH measured after 10 days
# Type: functional
row,Structure (SMILES),Activity
1,CC(C)O/N=C(\C#N)C(=O)NC1=NOC(C)C1 (stereo not given),70%
2,CO/N=C(\C#N)C(=O)NCc1cc(C)on1,70%
3,CO/N=C(\C#N)C(=O)NCC#N,70%
4,CO/N=C(C(=O)NC1=NOC(C)(C)C1)\C(N)=N\O,70%
5,CO/N=C(C(=O)NC1=NOC(C)C1)\C(N)=N\O (stereo not given),70%
6,CCC1(C)CC(NC(=O)C(=N/OC)/C(N)=N/O)=NO1 (stereo not given),70%
7,CCO/N=C(C(=O)NC1=NOC(C)(C)C1)\C(N)=N\O,70%
8,CO/N=C(\C#N)C(=O)NC1=NOC(C)C1 (stereo not given),70%
9,CCO/N=C(\C#N)C(=O)NCC1=NOC(C)C1 (stereo not given),70%
10,CC1CC(CNC(=O)/C(C#N)=N/OCc2ccccc2)=NO1 (stereo not given),70%
11,CCO/N=C(\C#N)C(=O)NC1=NOC(C)C1 (stereo not given),70%
12,CO/N=C(\C#N)C(=O)NCC1=NOC(C(C)(C)C)C1 (stereo not given),70%
13,CO/N=C(\C#N)C(=O)NCc1cccnc1,70%

# Tested on: Pseudoperonospora cubensis
# Experiment: Fungicidal activity against Pseudoperonospora cubensis in cucumber plant assessed as cucumber downy mildew disease control at 500 ppm at 22 +/- 2 degC, 98% RH measured after 10 days
# Type: functional
row,Structure (SMILES),Activity
1,CC1CC(NC(=O)/C(C#N)=N/OCc2ccccc2)=NO1 (stereo not given),<70%
2,CO/N=C(\C#N)C(=O)NCc1ccsc1,<70%
3,C#CCNC(=O)/C(C#N)=N/OC,<70%
4,C=CCNC(=O)/C(C#N)=N/OC,<70%
5,N#C/C(=N\OCc1ccccc1)C(=O)NCCCl,<70%
6,CNC(=O)/C(=N\OC)C(=O)NC1=NOC(C)(C)C1,<70%
7,CO/N=C(/C(=O)NC1=NOC(C)(C)C1)C(=O)N(C)C,<70%
8,CO/N=C(\C(=N)OC)C(=O)NC1=NOC(C)(C)C1,<70%
9,CC1(C)CC(NC(=O)C(=N/OCc2ccccc2)/C(N)=N/O)=NO1,<70%
10,CO/N=C(\C#N)C(=O)NC1=NOC(c2ccccc2)C1 (stereo not given),<70%
11,CO/N=C(/C(=O)NC1=NOC(C)(C)C1)C(=O)OC,<70%
12,CO/N=C(\C(N)=O)C(=O)NC1=NOC(C)(C)C1,<70%
